The text below walks through data of patent US20120100204A1, “TGF-Beta Stimulating Agent Compositions and Combinations” (TCP INNOVATIONS LTD, priority 2007, published 2012).

The subject of one data set is TGF-beta1 protein. As to the kind of experiment: total TGF-beta1 protein in conditioned medium, Quantikine ELISA. The format is cell-based, human. The conditions noted are these: 24 hrs or 72 hrs; any dose tested (Tamoxifen up to 33 μM, aspirin up to 100 μM). The protocol:
The cells were cultured (37° C.; 5% CO2) in DMEM+20% foetal calf serum (FCS), and subcultured every 5 days at 1:2 dilution, using 0.02% trypsin/EDTA (Gibco).
For the experiments, the cells were subcultured into 12-well cluster plates at 1×10^5 cells/cm^2, and allowed to grow for 24 hrs. […] The cells were then incubated for either 24 hrs or 72 hrs depending on the experiment. All treatment conditions were established in triplicate.
TGF-beta1 protein levels in the medium was measured using the Quantikine ELISA kit (R&D Systems) in accordance with the manufacturer's instructions, except that the medium was pre-activated by addition of an equal volume of 2.7M HCl 10M Urea, and then neutralised by addition of the same volume of 1M HEPES 2M NaOH. […] Note that TGF-beta proteins are well known to interact with many different matrix proteins and cell surface proteins, including proteoglycans, low affinity type III receptors, fibronectin and collagen, and consequently the amount of TGF-beta protein in the medium may not represent the total amount synthesised by the cells, and a negative result in the assay for TGF-beta protein may represent a false negative.

The next data set relates to fibrin(ogen). The data set is described as follows: fibrin(ogen) deposition into the blood vessel wall, quantitative immunofluoresence. The source says:
Adult male apoE-deficient mice, back-crossed onto a C57B16 background for at least five generations, were randomised into groups of eight animals at 12 weeks of age, such that each group had similar average body weight. […] The amount of food eaten and the body weight of each mouse was monitored daily for the first week, and once per week thereafter. After 12 weeks of treatment, the mice were sacrificed by CO2 asphyxiation, and heart & lung blocks were excised, embedded in Cryo-M-bed (Bright Instruments, UK) without fixation and snap frozen in liquid nitrogen.
Sections were then prepared from the aortic root according to the Paigen Strategy (a defined sequence of cutting sections which allow reproducible comparison between animals; see for example Grainger et al. (1995) Nature Med. 1:1067-72 and the references therein). 4 μm crysosections were cut using a motordriven cryotome (Bright Instruments) and collected onto poly-L-lysine coated glass microscope slides, then fixed in ice-cold acetone for 90 secs, allowed to air dry and stored at −20° C. until analysed.
The level of fibrin or fibrinogen deposited into the vessel wall was also estimated by quantitative immunofluoresence, using a method identical to that for TGF-beta1, except that the primary antibody was sheep anti-fibrin(ogen) (Chemicon; 2 μg/ml) and the secondary antibody was donkey anti-sheep IgG minimum cross-reactivity, FITC labelled (Jackson Immunoresearch), as previously described (Thromb Res. 2001 Apr. 1; 102(1):71-80).
Adult male apoE-deficient mice were treated, in groups of 8, with fish oil (Seven Seas, UK), aspirin or both agents simultaneously from 12 weeks of age until 24 weeks of age, exactly as described in Example 2.
The levels of TGF-beta1 and fibrin(ogen) in the vessel wall were determined by quantitative immunofluoresence, exactly as described in example 2.

A further data set deals with tgfb3 mRNA. As to the kind of experiment: tgfb3 mRNA level by quantitative PCR in human aortic vascular smooth muscle cells. The conditions noted are these: 24 hrs. The format is cell-based. The protocol:
(1995) Cardiovasc. Res. 29:848-55). […] The cells were then incubated for either 24 hrs or 72 hrs depending on the experiment. All treatment conditions were established in triplicate. The level of mRNA for tgfb1, tgfb2 and tgfb3 were estimated by quantitative PCR. The media was removed and RNA was carefully prepared using the Ambion RNAqueous4PCR kit (Ambion#1914) in accordance with the manufacturer's instructions. The purity of the RNA and the quantity was assessed spectrophotometrically. […] This analysis results in both a gel-like image as well as electrophoretic data. Indications of RNA degradation are: (a) decreasing ratio of ribosomal bands (b) additional peaks bellow the ribosomal bands (c) Decrease in overall RNA signal (d) shift towards shorter fragments. […] Next, the RNA was converted to cDNA using the ABI High-Capacity cDNA Archive Kit, in accordance with manufacturer's instructions. […] Samples were vortexed to ensure thorough mixing. cDNA was aliquoted into ABI 384 well plates using a multi-channel pipette, 4.5 μl of sample into each well. Samples were assayed in triplicate (that is, nine determinations in total were made for each condition, being three separate assays on each of three replicate culture wells). The assay mix and Universal Master Mix were prepared and aliquoted across the 384 well plates 5.5 μl in each well, using a single channel pipette. […] Universal Master Mix=5 μl; cDNA=4.5 μl. The plates were then heat sealed using Abgene clear seal strong plastic heat seals, and then cycled and scanned using the ABI 9700HT under the following conditions: 95° C. for 10 minutes to activate the AmpliTaq GOLD, then 40 cycles of: 95° C. for 15 sec (Denaturation), 60° C. for 60 […]). […] Quantitative PCR was performed using several primer/probe sets. […] We used both commercially available primer/probe sets (ABI Taqman pre-validated assays), using both available sets in the ABI database for tgfb1 and tgfb2, as well as the single available set for tgfb3. In addition, we used our own manual design probe/primer set for each of tgfb1, tgfb2 and tgfb3. […] In all quantitative PCR experiments, several additional controls were included: firstly, a control for each sample is run with no reverse transcription to ensure the mRNA sample is not contaminated with genomic DNA (although the manual design probe/primer sets were all selected to cross an exon/exon boundary, ensuring no detectable amplicon is produced from genomic DNA templates). […] Failure of either control led to the repeat of the entire experiment.

For `CC(=O)Oc1ccccc1C(=O)O` [Aspirin, acetylsalicylic acid], the “effect on total TGF-beta1 protein levels in conditioned medium” value in the data set on TGF-beta1 protein was “no statistically significant effect”. In the data set on fibrin(ogen) (mouse, in vivo), the “effect on fibrin(ogen) deposition into the blood vessel wall (in words)” value is “significantly reduced”. Moreover, the entries for the “Level of mRNA, estimated by qPCR: tgfb3” value in the data set with tgfb3 mRNA (10 μM A), in the data set on tgfb3 mRNA (33 μM A) and in the data set on tgfb3 mRNA (100 μM A) were 1.09 ± 0.08 fold-change, 1.06 ± 0.13 fold-change and 0.94 ± 0.09 fold-change, respectively.
Consider `CC/C(=C(\c1ccccc1)c1ccc(OCCN(C)C)cc1)c1ccccc1` [Tamoxifen], for which, in the data set on TGF-beta1 protein, the “effect on total TGF-beta1 protein levels in conditioned medium” value is recorded as “no statistically significant effect”. Moreover, the “Fibrin(ogen) staining” value in the data set with fibrin(ogen) (apoE mice, 12 weeks, TMX 1 mg/kg/day, Aspirin 30 mg/kg/day, mean ± SD) was found to be 151 ± 7 AU. In addition, the “increase of fibrin(ogen) deposition into the vessel wall” value in the data set on fibrin(ogen) (apoE mice, Tamoxifen 1 mg/kg/day, vs control) was found to be 23%. For the same compound, the “Level of mRNA, estimated by qPCR: tgfb3” value in the data set on tgfb3 mRNA (3.3 μM T) was 0.92 ± 0.16 fold-change; in the data set on tgfb3 mRNA (10 μM T), 1.19 ± 0.21 fold-change; in the data set with tgfb3 mRNA (33 μM T) it was 1.31 ± 0.11 fold-change. For the same compound, the “doses that significantly increased tgfb3 mRNA” value in the data set with tgfb3 mRNA was at least 10 µM.
